Test results published in patent US6416965B2, “Screening methods for presqualene disphosphate analogs” (Brigham and Women's Hospital, priority 1997, dated 2002).

Assays:
[1] = test system: electroporated neutrophils; experiment: Superoxide anion generation (NADPH oxidase activity) by electroporated neutrophils; assay type: cell-based, human
Source text: To test the impact of compounds VI and VIII on neutrophil responses, the isolated lipids were introduced into neutrophils by electroporation prior to determining NADPH oxidase activity. […] Prenyl cysteine analogues can disrupt G-protein interaction with activated FMLP receptors (Scheer, A. & Gierschik, P. Biochemistry. 34,4952-4961 (1995), the teachings of which are incorporated herein by reference); therefore to determine compound VI's level of action, neutrophil superoxide anion generation was examined in the presence of phorbol 12-myristate 13-acetate (PMA), a potent trigger for O2- production which bypasses cell surface receptors to stimulate protein kinase C and subsequent NADPH assembly (see for example, Baggiolini, M., Boulay, F., Badwey, J. A. & Curnutte, J. T. FASEB J. 7, […] (1993); FIG. 3c).
After electroporation, cells in cytochrome c (0.7 mg/ml) were exposed (10 min, 37° C.) to PMA (10^−7 M), FMLP (10^−7 M) plus cytochalasin b (15 μg/ml), compound VI (1 μM) or compound VIII (1 μM) and supernatants monitored at 550 nm. Values represent the mean±SEM for n≧4.
Neutrophils (10^7/500 μl) were electroporated (1.65 kV/cm, 250 μF, Ω∞, Invitrogen Electroporator VI) at 0° C. in the presence of 10−^9-10−^6 M compound VI, VIII, FDP, FMP, squalene or vehicle (ethanol 0.2%). After electroporation, cells, in cytochrome c (0.7 mg/ml), were exposed (10 minutes, 37° C.) to either cytochalasin b (5 μg/mL) and FMLP (10^−7 M)(a) or PMA ((10^−7 M)(b) and supernatants monitored at […]. Electroporation gave a 49.9% reduction in FMLP-stimulated NADPH oxidase compared to naive cells. Values (FIGS. 4a and 4b) represent the mean±SEM for n≧3, d≧6. For adhesion (FIGS. 4c and 4d), changes in light transmittance were monitored (as in Fiore, S., Nicolaou, K. C., Caulfield, T., Kataoka, H. & Serhan, C. N. Biochem. J. 266, 25-31 (1990), the teachings of which are incorporated herein by reference) after addition of compounds VI, VIII (1.6 μM) or vehicle (0.5 min) and FMLP (0.5-5 μM) (2.5 min). Cell viability remained>99%. Values represent the mean±SEM for n=3, d=9. 1,4,5-inositol-triphosphate levels were determined (Amersham) in fresh PMN (10^7 cells) exposed (5 minutes, 37° C.) to compound VI, compound VIII (1 μM) or vehicle and stimulated with FMLP (10^−7M, 37° C.) (as in FIG. 4e). % Inhibition after 10 second exposure to FMLP is reported as mean±SEM for n=4, d≧8. *p <0.05 in Student's paired t-test compared with control, while “NS” indicates no significant change compared to incubations in the presence of vehicle (ethanol 0.2%) alone. Stereochemistry of PSDP and PSMP (FIG. 4f) were assigned by routine methods (Poulter, C. D. and Rilling, H. C. Acc. Chem. Res. 11, 307-313, (1978), the teachings of which are hereby incorporated by reference).

Phospholipase D (PLD) = experiment: Phospholipase D inhibition, choline release, Lineweaver-Burk analysis; assay type: biochemical; settings: PLD 3 units/125 μL, phosphatidyl choline substrate, 30° C., pH 7.5
Source text: Phospholipase D (PLD) plays a central role in cellular activation in diverse cell types via the release of the bioactive […], phosphatidate. Several agonists operating through different classes of receptors have been defined that stimulate cellular PLD activity. No known endogenous regulators of PLD have been identified. Activation of neutrophils leads to an increase in intracellular phosphatidic acid that is generated predominantly via the hydrolysis of phosphatidyl choline by phospholipase D (Agwu, DE, et al., Journal of Clinical Investigation 1991; 88:531). Because PSDP inhibited phosphatidate mediated superoxide anion generation in human neutrophil sonicates (Levy, BD, et al., Nature 1997; 389:985), its impact on phospholipase D was determined. A purified enzyme was utilized to directly evaluate the action of PSDP with PLD. Lineweaver-Burk plots for PLD (3 units/125 μL; EC 3.1.4.4, Sigma Chemical Co.) in the presence of EtOH (0.2%) or increasing concentrations of PSDP are reported in FIG. 5. After addition of PSDP to PLD (5 min, 30° C.), phosphatidyl choline (lecithin) in 60 mM Tris/HCl+10 mM CaCl2, pH 7.5 was added (30° C.) and reactions were terminated at 30 second intervals (t0-90 sec) with Tris-HCl (1 M) plus EDTA (50 mM). Choline release was quantitated as in Abousalham A. et al. Biochimica et Biophysica Acta 1;1158 (1993). […]

Gst-Grb2 fusion protein = target: T1, Gst-Grb2 fusion protein (Homo sapiens, UniProt P62993); experiment: PSDP equilibrium binding assay to GST-GRB2
T1 construct: purchased Upstate Biotechnology 14-128
T1 sequence (P62993 whole entry, the tested form may be a part): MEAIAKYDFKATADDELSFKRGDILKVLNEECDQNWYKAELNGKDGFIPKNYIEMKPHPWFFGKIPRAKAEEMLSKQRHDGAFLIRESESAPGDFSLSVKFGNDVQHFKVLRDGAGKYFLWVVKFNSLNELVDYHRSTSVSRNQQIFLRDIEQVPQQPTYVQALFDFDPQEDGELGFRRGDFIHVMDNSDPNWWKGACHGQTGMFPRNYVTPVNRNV
Description: Equilibrium binding was determined for ^32PO4-PSDP (1 μM) to the adaptor protein, Grb2, which is known to carry two SH3 domains and one SH2 domain (Lowenstein, EJ, et al., Cell, 1992; 70:431). […] Bound material was separated from unbound by spin filtration (0.2 μm) and quantitated by scintillation counting.
To 100 μl of 0.9% NaCl was added 2 μg GST-GRB2 with 0-100 μg compound (e.g., delipidated human serum albumin, SH3-bearing SOS peptide or unlabeled PSDP) to be tested. The samples were prepared directly in the top of PGC spin filter tubes.
To the solution was added radiolabeled-PSDP in 1 μl ethanol. The mixture was vortexed and incubated at 37° C. for 30 minutes. After the incubation period, the sample was centrifuged at 2000 rpm at 25° C. for 3 minutes. […] The filter was removed, placed in a scintillation vial and the amount of radioactivity bound to the trapped agarose complex (i.e., bound material) was determined.
1 ml of CHCl3:MeOH (2:1) was added to the filtrate (a clear interface should be evident). […] At this stage, dependent upon the amount of radioactivity present, the radioactivity of the sample was determined either in scintillation fluid or by phosphoimage after TLC. […]
Bound material is reflected in the filtrate by loss of radioactivity when radiolabeled material is incubated in the presence of the GRB2 complex compared to the absence of the agarose complex. […]

With CC(C)=CCC/C(C)=C/CC/C(C)=C/C1C(COP(=O)(O)OP(=O)(O)O)C1(C)CC/C=C(\C)CCC=C(C)C (stereo in doubt) [Compound VI, presqualene diphosphate] the “inhibition of PMA activated superoxide anion generation at 10 nM” value ([1]; compound 10 nM, PMA 100 nM) was “significant inhibition still present”, the “inhibition of PMA activated superoxide anion generation” value ([1]; compound 1 μM, PMA 100 nM) was 44% and the “inhibition of neutrophil superoxide anion generation” value ([1]; nM-μM amounts) was “inhibited”. For the same compound, the “inhibition of the FMLP-triggered generation of superoxide anion” value ([1]; nM-μM quantities introduced by electroporation, FMLP 10^-7 M plus cytochalasin b) was 60%, the “stimulation of O2- production by the compound alone” value ([1]; no agonist, 1 μM (FIG. 3c)) was “neither compound VI nor VIII alone stimulated” and the Ki (Phospholipase D (PLD)) was < 100 nM. For the same compound, the “binding of radiolabeled PSDP to Gst-Grb2 complexed to agarose beads” value (Gst-Grb2 fusion protein; 32PO4-PSDP 1 μM, 20 min 37° C.) was “bound” and the “competition of radioligand (32PO4-PSDP) off Gst-Grb2” value (Gst-Grb2 fusion protein; excess unlabeled PSDP, albumin 50 μg, Sos 50 μg) was “could be competed off”.
